Laboratory results as given in ChEMBL document CHEMBL1201862, “PubChem BioAssay data set” (2004).
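The compound was tested at five concentrations on cells cultured in 96-well plates, with a 48-hour exposure period. Here, GI50 denotes the concentration required for 50% inhibition of growth.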 Active and inactive are the calls of the source. Rule as the data show it: active = GI50 up to about 1.1 µM and inactive = higher.

How the values were obtained:
Experiment in all cases: DTP human tumour cell line panel, 48 h
SNB-19 = system: SNB-19
UACC-257 = system: UACC-257
MDA-MB-435 = system: MDA-MB-435
OVCAR-3 = system: OVCAR-3
SK-MEL-28 = system: SK-MEL-28
OVCAR-8 = system: OVCAR-8
A549 = system: A549
HL-60 = system: HL-60
CAKI-1 = system: CAKI-1
SW-620 = system: SW-620
SR = system: SR
HCC 2998 = system: HCC 2998
OVCAR-5 = system: OVCAR-5
T47D = system: T47D
ACHN = system: ACHN
MOLT-4 = system: MOLT-4
MCF7 = system: MCF7
Hs-578T = system: Hs-578T
SNB-75 = system: SNB-75
NCI-H23 = system: NCI-H23
COLO 205 = system: COLO 205
LOX IMVI = system: LOX IMVI
OVCAR-4 = system: OVCAR-4
HOP-92 = system: HOP-92
MDA-N = system: MDA-N
SN12C = system: SN12C
NCI/ADR-RES = system: NCI/ADR-RES
A498 = system: A498
DU-145 = system: DU-145
SF-539 = system: SF-539
EKVX = system: EKVX
SF-268 = system: SF-268
TK-10 = system: TK-10
NCI-H460 = system: NCI-H460
CCRF-CEM = system: CCRF-CEM
HOP-62 = system: HOP-62
HCT-116 = system: HCT-116
Malme-3M = system: Malme-3M
786-0 = system: 786-0
HCT-15 = system: HCT-15
NCI-H226 = system: NCI-H226
K562 = system: K562
UACC-62 = system: UACC-62
U-251 = system: U-251
HT-29 = system: HT-29
KM12 = system: KM12
M14 = system: M14
IGROV-1 = system: IGROV-1
SK-MEL-5 = system: SK-MEL-5
RPMI-8226 = system: RPMI-8226
MDA-MB-231 = system: MDA-MB-231
SF-295 = system: SF-295
NCI-H522 = system: NCI-H522
PC-3 = system: PC-3
SK-MEL-2 = system: SK-MEL-2
RXF 393 = system: RXF 393
UO-31 = system: UO-31
SK-OV-3 = system: SK-OV-3
BT-549 = system: BT-549

O=C(CCCN1CCC2(CC1)/C(=N/C1CCCCC1)NC(=O)N2c1ccccc1)c1ccc(F)cc1
GI50 (SNB-19): > 100 µM (inactive) | GI50 (UACC-257): 21.5 µM (inactive) | GI50 (MDA-MB-435): 20.1 µM (inactive) | GI50 (OVCAR-3): 11.6 µM (inactive) | GI50 (SK-MEL-28): 18.6 µM (inactive) | GI50 (OVCAR-8): 28.4 µM (inactive) | GI50 (A549): 44.4 µM (inactive) | GI50 (HL-60): 23.1 µM (inactive) | GI50 (CAKI-1): > 100 µM (inactive) | GI50 (SW-620): > 100 µM (inactive) | GI50 (SR): 16.7 µM (inactive) | GI50 (HCC 2998): 20.6 µM (inactive) | GI50 (OVCAR-5): 20.9 µM (inactive) | GI50 (T47D): 29.9 µM (inactive) | GI50 (ACHN): 31.7 µM (inactive) | GI50 (MOLT-4): 21.9 µM (inactive) | GI50 (MCF7): 14.1 µM (inactive) | GI50 (Hs-578T): 33.4 µM (inactive) | GI50 (SNB-75): 17.2 µM (inactive) | GI50 (NCI-H23): 21.3 µM (inactive) | GI50 (COLO 205): 16.1 µM (inactive) | GI50 (LOX IMVI): 14.2 µM (inactive) | GI50 (OVCAR-4): 31.7 µM (inactive) | GI50 (HOP-92): 17.1 µM (inactive) | GI50 (MDA-N): 18.2 µM (inactive) | GI50 (SN12C): 18.4 µM (inactive) | GI50 (NCI/ADR-RES): 19.2 µM (inactive) | GI50 (A498): 15.2 µM (inactive) | GI50 (DU-145): 41.2 µM (inactive) | GI50 (SF-539): 18.8 µM (inactive) | GI50 (EKVX): 29.8 µM (inactive) | GI50 (SF-268): 19 µM (inactive) | GI50 (TK-10): 22.5 µM (inactive) | GI50 (NCI-H460): 22.7 µM (inactive) | GI50 (CCRF-CEM): 23.4 µM (inactive) | GI50 (HOP-62): 20.9 µM (inactive) | GI50 (HCT-116): 21.3 µM (inactive) | GI50 (Malme-3M): 12.7 µM (inactive) | GI50 (786-0): 20.8 µM (inactive) | GI50 (HCT-15): 28.3 µM | GI50 (NCI-H226): 14.9 µM (inactive) | GI50 (K562): 29.8 µM (inactive) | GI50 (UACC-62): 22.3 µM (inactive) | GI50 (U-251): 33.1 µM (inactive) | GI50 (HT-29): 17.9 µM (inactive) | GI50 (KM12): 19.8 µM (inactive) | GI50 (M14): 17.6 µM (inactive) | GI50 (IGROV-1): 26.7 µM (inactive) | GI50 (SK-MEL-5): 23.1 µM (inactive) | GI50 (RPMI-8226): 20.9 µM (inactive) | GI50 (MDA-MB-231): 12.4 µM (inactive) | GI50 (SF-295): 19.5 µM (inactive) | GI50 (NCI-H522): 24.7 µM (inactive) | GI50 (PC-3): 21.6 µM (inactive) | GI50 (SK-MEL-2): 17.7 µM (inactive) | GI50 (RXF 393): 39.5 µM (inactive)

CCC(=O)NC(Nc1cc(C)on1)(C(F)(F)F)C(F)(F)F
GI50 (SNB-19): > 100 µM (inactive) | GI50 (UACC-257): > 100 µM (inactive) | GI50 (MDA-MB-435): > 100 µM (inactive) | GI50 (OVCAR-3): > 100 µM (inactive) | GI50 (SK-MEL-28): > 100 µM (inactive) | GI50 (UO-31): 97.9 µM (inactive) | GI50 (OVCAR-8): > 100 µM (inactive) | GI50 (SK-OV-3): > 100 µM (inactive) | GI50 (A549): > 100 µM (inactive) | GI50 (HL-60): > 100 µM (inactive) | GI50 (CAKI-1): > 100 µM (inactive) | GI50 (SW-620): > 100 µM (inactive) | GI50 (SR): > 100 µM (inactive) | GI50 (HCC 2998): > 100 µM (inactive) | GI50 (OVCAR-5): > 100 µM (inactive) | GI50 (T47D): > 100 µM (inactive) | GI50 (ACHN): > 100 µM (inactive) | GI50 (MOLT-4): > 100 µM (inactive) | GI50 (MCF7): > 100 µM (inactive) | GI50 (Hs-578T): > 100 µM (inactive) | GI50 (BT-549): > 100 µM (inactive) | GI50 (SNB-75): > 100 µM (inactive) | GI50 (NCI-H23): > 100 µM (inactive) | GI50 (LOX IMVI): > 100 µM (inactive) | GI50 (HOP-92): > 100 µM (inactive) | GI50 (SN12C): > 100 µM (inactive) | GI50 (NCI/ADR-RES): > 100 µM (inactive) | GI50 (A498): > 100 µM (inactive) | GI50 (DU-145): > 100 µM (inactive) | GI50 (SF-539): > 100 µM (inactive) | GI50 (EKVX): > 100 µM (inactive) | GI50 (SF-268): > 100 µM (inactive) | GI50 (TK-10): > 100 µM (inactive) | GI50 (NCI-H460): > 100 µM (inactive) | GI50 (CCRF-CEM): > 100 µM (inactive) | GI50 (HOP-62): > 100 µM (inactive) | GI50 (HCT-116): > 100 µM (inactive) | GI50 (Malme-3M): > 100 µM (inactive) | GI50 (786-0): > 100 µM (inactive) | GI50 (HCT-15): > 100 µM | GI50 (NCI-H226): > 100 µM (inactive) | GI50 (K562): > 100 µM (inactive) | GI50 (UACC-62): > 100 µM (inactive) | GI50 (U-251): > 100 µM (inactive) | GI50 (HT-29): > 100 µM (inactive) | GI50 (KM12): > 100 µM (inactive) | GI50 (M14): > 100 µM (inactive) | GI50 (IGROV-1): > 100 µM (inactive) | GI50 (SK-MEL-5): > 100 µM (inactive) | GI50 (RPMI-8226): > 100 µM (inactive) | GI50 (MDA-MB-231): > 100 µM (inactive) | GI50 (NCI-H522): > 100 µM (inactive) | GI50 (SK-MEL-2): > 100 µM (inactive) | GI50 (RXF 393): > 100 µM (inactive)

CCCCCCCCCCCCC/C=C/[C@H]1[C@@H](C(=O)OC)N1[S+]([O-])c1ccc(C)cc1 (some centres undefined)
GI50 (UACC-257): 36.3 µM (inactive) | GI50 (MDA-MB-435): > 100 µM (inactive) | GI50 (OVCAR-3): > 100 µM (inactive) | GI50 (SK-MEL-28): > 100 µM (inactive) | GI50 (UO-31): > 100 µM (inactive) | GI50 (HL-60): 21.2 µM (inactive) | GI50 (SW-620): > 100 µM (inactive) | GI50 (SR): 21.3 µM (inactive) | GI50 (T47D): 22.9 µM (inactive) | GI50 (ACHN): > 100 µM (inactive) | GI50 (MOLT-4): 87.5 µM (inactive) | GI50 (BT-549): > 100 µM (inactive) | GI50 (NCI-H23): > 100 µM (inactive) | GI50 (COLO 205): > 100 µM (inactive) | GI50 (LOX IMVI): > 100 µM (inactive) | GI50 (HOP-92): > 100 µM (inactive) | GI50 (A498): > 100 µM (inactive) | GI50 (DU-145): > 100 µM (inactive) | GI50 (EKVX): 88.3 µM (inactive) | GI50 (TK-10): > 100 µM (inactive) | GI50 (CCRF-CEM): 52.5 µM (inactive) | GI50 (HOP-62): > 100 µM (inactive) | GI50 (HCT-116): > 100 µM (inactive) | GI50 (Malme-3M): > 100 µM (inactive) | GI50 (786-0): > 100 µM (inactive) | GI50 (K562): 31.3 µM (inactive) | GI50 (UACC-62): > 100 µM (inactive) | GI50 (U-251): > 100 µM (inactive) | GI50 (IGROV-1): > 100 µM (inactive) | GI50 (SK-MEL-5): 35.8 µM (inactive) | GI50 (RPMI-8226): 12.1 µM (inactive) | GI50 (NCI-H522): 71.4 µM (inactive) | GI50 (PC-3): > 100 µM (inactive) | GI50 (SK-MEL-2): > 100 µM (inactive)
